Laboratory results: patent US7795456B2, “Insecticidal N-substituted sulfoximines” (Dow AgroSciences LLC, priority 2004, dated 2010)
Read-outs that look alike come from different tables or passages of the source.

Key:
[1] = system: fruit fly (Drosophila melanogaster)
[2] = system: yellow fever mosquito (Aedes aegypti) larvae; assay: whole plant or invertebrate; assay type: in vivo; conditions: 72 h, read-out: YFM 26: % control at 26 ppm against yellow fever mosquito in submerge tests
[3] = system: beet armyworm (Spodoptera exigua); assay: Insecticidal test for beet armyworm in injection assays; conditions: 1 h, read-out: BAW SYM: % showing intoxicated symptoms at 10 μg/larva against beet armyworm in injection tests
[4] = system: corn earworm (Helicoverpa zea)
[5] = system: beet armyworm (Spodoptera exigua)
[6] = system: cotton aphid (Aphis gossypii); assay: Insecticidal test for cotton aphid, foliar spray on squash; conditions: for pest or weed control at 50 ppm / pest or weed control at 200 ppm: Aphis gossypii, foliar, 72 h; for pest or weed control at 50 ppm: read-out: CA 50: % control at 50 ppm against cotton aphid in foliar spray tests; for pest or weed control at 200 ppm: read-out: CA 200: % control at 200 ppm against cotton aphid in foliar spray tests
[7] = system: sweet potato whitefly (Bemisia tabaci); assay: Insecticidal test for sweet potato whitefly, foliar spray on cotton; conditions: Bemisia tabaci, in Gossypium hirsutum, foliar, read-out: SPW 200: % control at 200 ppm against sweet potato whitefly in foliar spray tests
[8] = system: green peach aphid (Myzus persicae); assay: Insecticidal test for green peach aphid, foliar spray on cabbage seedlings
[9] = 50 μg/cm2, second-instar larvae, 5 days

SMILES	FF 25: % mortality at 25 μg/cm2 against fruit fly in dietary tests ([1]; 25 μg/cm2, 48 h)	pest or weed control at 26 ppm [2] [%]	pest or weed control at 0.01 mg [3] [%]	CEW 50: % mortality at 50 μg/cm2 against corn earworm in dietary tests [4, 9]	BAW 50: % mortality at 50 μg/cm2 against beet armyworm in dietary tests [5, 9]	pest or weed control at 50 ppm [6] [%]	pest or weed control at 200 ppm [6] [%]	FF SYM: % showing intoxicated symptoms at 25 μg/cm2 against fruit fly in dietary tests ([1]; 25 μg/cm2, 4 h)	further results
N#CN=S1(=O)CCCCC1Cc1ccc(Cl)nc1 (stereo not shown) [Compound 5, 2-[(6-chloropyridin-3-yl)methyl]-1-oxidohexahydro-1λ^4-thiopyran-1-ylidenecyanamide]	G (Inactive)	50 to 59	50 to 59	G (Inactive)	G (Inactive)	90 to 100	90 to 100	–	–
CC(C)(c1ccc(Cl)nc1)S(C)(=O)=NC#N (stereo not shown) [Compound 9, [1-(6-chloropyridin-3-yl)-1-methylethyl](methyl)oxido-λ^4-sulfanylidenecyanamide]	C (70-79)	90 to 100	< 50	G (Inactive)	G (Inactive)	90 to 100	90 to 100	A (90-100)	–
N#CN=S1(=O)CCCC1Cc1cnc(Cl)s1 (stereo not shown) [Compound 11, 2-[(2-chloro-1,3-thiazol-5-yl)methyl]-1-oxidotetrahydro-1H-1λ^4-thien-1-ylidenecyanamide]	D (60-69)	90 to 100	60 to 69	G (Inactive)	G (Inactive)	90 to 100	90 to 100	–	–
N#CN=S1(=O)CCCC1 [Compound 12, 1-Oxidotetrahydro-1H-1λ^4-thien-1-ylidenecyanamide]	–	–	90 to 100	–	–	90 to 100	90 to 100	–	FF 25: % mortality at 25 μg/cm2 against fruit fly in dietary tests ([1]; in vivo): D (key: A: 90-100; B: 80-89; C: 70-79; D: 60-69; E: 50-59; F: Less than 50; G: Inactive; H: Not tested); FF SYM: % showing intoxicated symptoms at 25 μg/cm2 against fruit fly in dietary tests ([1]; in vivo): A (key: A: 90-100; B: 80-89; C: 70-79; D: 60-69; E: 50-59; F: Less than 50; G: Inactive; H: Not tested); pest or weed control at 200 ppm [7]: 80 to 89%; % Control at ppm, against green peach aphid: 12.5 ([8]; in vivo): F (key: A: 90-100; B: 80-89; C: 70-79; D: 60-69; E: 50-59; F: Less than 50; G: Inactive; H: Not tested); % Control at ppm, against green peach aphid: 50 ([8]; in vivo): F (key: A: 90-100; B: 80-89; C: 70-79; D: 60-69; E: 50-59; F: Less than 50; G: Inactive; H: Not tested); CEW 50: % mortality at 50 μg/cm2 against corn earworm in dietary tests ([4]; in vivo): D (key: A: 90-100; B: 80-89; C: 70-79; D: 60-69; E: 50-59; F: Less than 50; G: Inactive; H: Not tested); BAW 50: % mortality at 50 μg/cm2 against beet armyworm in dietary tests ([5]; in vivo): F (key: A: 90-100; B: 80-89; C: 70-79; D: 60-69; E: 50-59; F: Less than 50; G: Inactive; H: Not tested); % Control at ppm, against cotton aphid: 0.78 ([6]; in vivo): E (key: A: 90-100; B: 80-89; C: 70-79; D: 60-69; E: 50-59; F: Less than 50; G: Inactive; H: Not tested); % Control at ppm, against cotton aphid: 3.12 ([6]; in vivo): E (key: A: 90-100; B: 80-89; C: 70-79; D: 60-69; E: 50-59; F: Less than 50; G: Inactive; H: Not tested); % Control at ppm, against cotton aphid: 12.5 ([6]; in vivo): A (key: A: 90-100; B: 80-89; C: 70-79; D: 60-69; E: 50-59; F: Less than 50; G: Inactive; H: Not tested); % Control at ppm, against cotton aphid: 50 ([6]; in vivo): A (key: A: 90-100; B: 80-89; C: 70-79; D: 60-69; E: 50-59; F: Less than 50; G: Inactive; H: Not tested)
CS(=O)(CCc1ccc(Cl)nc1)=NC#N (stereo not shown) [Compound 13]	G (Inactive)	–	< 50	G (Inactive)	G (Inactive)	90 to 100	90 to 100	–	pest or weed control at 200 ppm [7]: 90 to 100%; % Control at ppm, against green peach aphid: 0.78 ([8]; 0.78 ppm, rundown assay, 3 days): F (Less than 50); % Control at ppm, against green peach aphid: 3.12 ([8]; 3.12 ppm, rundown assay, 3 days): C (70-79); % Control at ppm, against green peach aphid: 12.5 ([8]; 12.5 ppm, rundown assay, 3 days): C (70-79); % Control at ppm, against green peach aphid: 50 ([8]; 50 ppm, rundown assay, 3 days): B (80-89); % Control at ppm, against cotton aphid: 0.195 ([6]; 0.195 ppm, rundown assay): F (Less than 50); % Control at ppm, against cotton aphid: 0.78 ([6]; 0.78 ppm, rundown assay): A (90-100); % Control at ppm, against cotton aphid: 3.12 ([6]; 3.12 ppm, rundown assay): A (90-100); % Control at ppm, against cotton aphid: 12.5 ([6]; 12.5 ppm, rundown assay): A (90-100); % Control at ppm, against cotton aphid: 50 ([6]; 50 ppm, rundown assay): A (90-100)
N#CN=S1(=O)CCCC1Cc1ccc(Cl)nc1 (stereo not shown) [Compound 14]	F (Less than 50)	90 to 100	–	G (Inactive)	G (Inactive)	90 to 100	90 to 100	–	–
CCS(=O)(=NC#N)C(C)c1ccc(Cl)nc1 (stereo not shown) [Compound 18]	G (Inactive)	–	< 50	G (Inactive)	G (Inactive)	90 to 100	90 to 100	–	pest or weed control at 200 ppm [7]: 80 to 89%
N#CN=S1(=O)CCC[C@H]1Cc1ccc(Cl)nc1 (stereo partly shown) [Compound 21]	G (Inactive)	80 to 89	–	G (Inactive)	G (Inactive)	90 to 100	90 to 100	–	–
CS(=O)(=NC#N)C(Cl)c1ccc(Cl)nc1 (stereo not shown) [Compound 23]	A (90-100)	90 to 100	< 50	G (Inactive)	G (Inactive)	90 to 100	90 to 100	A (90-100)	–
CS(=O)(=NC#N)C(Br)c1ccc(Cl)nc1 (stereo not shown) [Compound 24]	A (90-100)	90 to 100	< 50	G (Inactive)	G (Inactive)	90 to 100	90 to 100	F (Less than 50)	–
CS(=O)(=NC#N)C(F)c1ccc(Cl)nc1 (stereo not shown) [Compound 25]	C (70-79)	90 to 100	–	G (Inactive)	G (Inactive)	90 to 100	90 to 100	B (80-89)	–
CS(=O)(=NC#N)C(Cc1ccccc1)c1ccc(Cl)nc1 (stereo not shown) [Compound 27]	G (Inactive)	80 to 89	–	G (Inactive)	G (Inactive)	90 to 100	90 to 100	–	–
CCS(=O)(CC(C)c1ccc(Cl)nc1)=N[N+](=O)[O-] (stereo not shown) [Compound 38]	G (Inactive)	< 50	–	G (Inactive)	G (Inactive)	80 to 89	90 to 100	–	–
